Measured values reported in a melting point compilation (Tetko et al.; mined from patent text by program, amines drawn as free bases though some values may be those of a salt).
Residues, ends and D or L forms follow the SMILES beside them. *: point of attachment. ONp = O=[N+]([O-])c1ccc(O*)cc1

Compound	melting point
CSc1nc(NCCCn2ccnc2)c(C#N)c(N2CCc3ccccc3CC2)n1	131 to 134 °C
COc1cnc2[nH]cc(/C=C3\N=C(NCC4CC4)NC3=O)c2c1	280 to 286 °C
COc1ccc(C(=O)Nc2ccc3ccc(Oc4c(C)cccc4C)nc3n2)cc1	174 °C
O=c1[nH]c2cc(Cl)c([N+](=O)[O-])cc2n(C2CCCCC2)c1=O	> 300 °C
CC(C)(C)OC(=O)N1CC2CC(CN(CC(O)COc3ccc(C(C)(C)C)cc3)C2)C1 (configuration not stated)	75 to 77 °C
CC(C)CC(NC(=O)C1CCCN1)C(=O)NCC(=O)Oc1ccc([N+](=O)[O-])cc1 (stereo not drawn) (H-Pro-Leu-Gly-ONp; configuration not given here)	173 °C
COc1ccc(-c2cc(C)c(C(=O)O)c(C)c2)cc1OC	175 to 176 °C
COc1ccc(C(=O)CSc2ccccc2)cc1	83 to 85 °C
COC(=O)CC=C(CC(C)C)C(=O)O	40 to 45 °C
CCCCCCN1Cc2cc3ccccc3n2Cc2ccccc21	45 °C
Nc1ncc(-c2ccc3ncc(-c4ccc(CN5CCC(C(=O)N6CCCCC6)CC5)cc4)n3n2)cc1C(F)(F)F	263 to 266 °C
COc1cc(-c2cc(C(F)(F)F)nn2-c2ccc(S(C)(=O)=O)c(F)c2)ccc1-c1cocn1	148 to 150 °C
COc1cccc2c1SCC(=O)C2	60 °C
CCCC1=C(C(=O)OCC)C(c2cccc(Cl)c2Cl)c2c[nH]nc2N1 (configuration not stated)	220 °C
COc1cc(/C=C2/C(=O)NC(=O)/C2=C/c2ccccc2)cc(OC)c1OC	176 to 178 °C
Clc1ncccc1OCC1CO1 (configuration not stated)	132 °C
COc1cc2c(cc1OC)C(c1ccccc1)N(C(=O)NCCN(C)C)CC2 (configuration not stated)	60 °C
O=c1[nH]c(N[N+](=O)[O-])ncc1Cc1ccn(Cc2ccccc2)c(=O)c1	200 to 201 °C
O=C(Nc1cccc(F)n1)c1cc(-c2ccc(Cl)c(Cl)c2)nc2ccccc12	204 to 206 °C
Cc1ccc(Oc2nsnc(Cl)c2=O)cn1	155 to 156 °C
COc1ccc(C=CC(=O)NCCc2ccc(I)c(S(N)(=O)=O)c2)c(OC)c1	180 °C
C=C(C)C(=O)Nc1ccc(C(=O)O)c(O)c1	220 to 222 °C
CCc1ncc2n1N=C(c1ccc([N+](=O)[O-])cc1)c1cc3c(cc1C2)OCO3	243 to 245 °C
O=CNC1=NN(c2ccccc2)C(c2ccccc2)C1 (configuration not stated)	158 to 160 °C
N#Cc1cccc(C=Nc2ccc(F)cc2)c1	101 °C
Cc1c(-c2ccc(NC(=O)C(C)C)cc2)sc2ncc(C(=O)C(C)C)c(O)c12	247 to 249 °C

Compound	melting point
CC(CS)C(=O)NC(CC(N)=O)C(=O)O (configuration not stated)	181 °C
O=C1N=C(N2CCSCC2)SC1=Cc1cccc(-c2cc(F)c(O)c(C34CC5CC(CC(C5)C3)C4)c2)c1	180 to 184 °C
CC(=NO)C(C)(C)NCCCNC(C)(C)C(COCC(O)Cn1ccnc1[N+](=O)[O-])=NO (configuration not stated)	72 to 73 °C
CC(C)(C)c1ccc(NC(=O)Nc2ccc(Oc3cc(Cl)ncn3)cc2)cc1	111 to 112 °C
CCCCn1ccc(-c2ccc(Oc3ccnc(C)c3)c(F)c2)c(C#N)c1=O	125 °C
Cc1ccccc1NC(=O)Nc1ccc(-c2c(C(C)C)sc3ncnc(N)c23)cc1	233 to 234 °C
CCc1nc2c(N)nc3ccccc3c2n1CCCCNC(=O)Nc1ccccc1	180 to 181 °C
CCOC(=O)c1cnc2c(cnn2Cc2ccco2)c1OCC	93 to 96 °C
CCOC(=O)C1(C(=O)Nc2ccc(Br)cc2C)CCC1	61 to 64 °C
CC(C)(NC(=O)CCn1cncc1C=O)c1ccc(Cl)cc1	127 to 129 °C
CCOC(=O)c1sc(SC(C)C)c2c1CCC(Br)C2=O (configuration not stated)	107 to 108 °C
COc1cccc2c3c(c(=O)[nH]c12)CCN3c1cccc(C)c1	155 to 157 °C
CCOC(=O)c1c(SC)nc(-c2ccc(SC)cc2)n(-c2ccc(F)cc2)c1=O	151 to 155 °C
CCOC(=O)C(NC(C)=O)(C(=O)OCC)C1=Nc2ccc(C#N)cc2C(c2ccccc2F)=NC1	138 to 140 °C
CN(C)C(=S)n1cnc(S(=O)(=O)CC2CCCC2)n1	65 °C
Cc1sc2ccccc2c1Br	39 to 40 °C
COC(=O)[C@H](NC(=O)OC(C)(C)C)c1ccc(O)cc1	140 to 142 °C
O=C(O)c1cnc2occc2c1	274 to 275 °C
O=C(O)[C@H](Cc1ccc(OCCc2coc(-c3ccccc3)n2)cc1)NS(=O)(=O)Cc1ccccc1	141 to 143 °C
CCCCn1c(=O)c2c(nc(C)n2S(=O)(=O)CCCCl)n(CCCC)c1=O	76 to 78 °C
CC(=NOCCOc1ccc(CC2SC(=O)NC2=O)cc1)c1cncc(-c2ccccc2)c1 (configuration not stated)	150 to 153 °C
COc1ccc2cnc(Nc3ccc(F)c(C)c3)nc2c1C1CCCC1	208 to 209 °C
CCS(=O)(=O)Nc1ccc([N+](=O)[O-])cc1SC1CCCCC1	119 to 120 °C
COc1ccc(-n2nc(Sc3ccc(OC(F)(F)F)cc3)c(C)c(C#N)c2=O)cc1	165 to 167 °C
O=C(O)CN1C(=O)C(=CC=Cc2cccc(-c3ccccc3)c2)SC1=S	232 to 237 °C
CCOP(=O)(CSCCOn1cnc2c(N)ncnc21)OCC	93 to 95 °C

Compound	melting point
COc1cccc([N+](=O)[O-])c1NC(=O)OCc1ccccc1	78 to 80 °C
CSC(Oc1cc(Cl)c2ncc(Br)cc2c1)C(=O)NC(C)(C)C (configuration not stated)	160 to 161 °C
CCOC(=O)c1cnc2cc3c(cc2c1Cl)OCO3	109 to 110 °C
Cc1nn(S(=O)Oc2ccccc2)c2ccccc12 (configuration not stated)	141 to 143 °C
C/C(=C/C#N)c1ccc2c(c1)C(C)(C)OC(=O)N2	213 to 215 °C
CCCCc1oc2ccccc2c1C(=O)NCc1ccc2c(-c3ccc(C)cc3)c(OCc3nnn[nH]3)ccc2c1	162 to 166 °C
Cc1c(CC(=O)N[C@@H](CO[N+](=O)[O-])C(=O)O)cc(-c2ccc(S(C)(=O)=O)cc2)n1-c1ccc(F)cc1	109 °C
O=C(O)C1=C(c2cccs2)c2cc(Cl)ccc2OC1C(F)(F)F (configuration not stated)	201 to 207 °C
COC(=O)C1=C(C)NN=C(c2ccccc2)C1c1ccccc1Cl (configuration not stated)	198 °C
COC(=O)[C@H](Cc1cncn1C)NC(=O)C(Cc1cccc2ccccc12)Cc1cccc2ccccc12	199 to 200 °C
O=[N+]([O-])c1ccc2nc(-c3ccc4c(c3)OCO4)ncc2c1	220 to 222 °C
Cc1ccc(-c2cccnc2)nc1	40 to 41 °C
Cn1cc(C(=O)c2ccc(Cl)cc2)cc1C(=O)CCl	130 to 132 °C
Cc1cccc(Nc2cc(Nc3ccc(O)cc3)ncn2)c1	242 to 245 °C
COc1nnc2n1C=Cc1ccccc1C2	160 to 161 °C
CC(C)c1c(C(=O)O)cnn1-c1ccc(Cl)cc1	211 to 212 °C
CSC1=C(Cl)CC2C3CCC4=CC(=O)C=CC4(C)C3(F)C(O)CC12C (configuration not stated)	262 to 268 °C
CC#CCOc1ccc(S(=O)(=O)C(C(=O)NO)c2ccc(-c3cccs3)cc2)cc1 (configuration not stated)	175 °C
CCOC(=O)c1cc2cc(C=O)cc(C(C)CC)c2oc1=O (configuration not stated)	89 to 90 °C
Cc1nsc(OCC(F)(F)F)c1S(N)(=O)=O	148 to 149 °C
CCOC(=O)COc1nccc(-c2ccccn2)n1	48 to 53 °C
CCn1ncc2nc(C(=O)OCC#N)c(C)nc21	83 to 84 °C
COc1c(C)cc(P(c2cc(C)c(OC)c(C)c2)c2cc(C)c(OC)c(C)c2)cc1C	176 °C
C=CCCOc1ccc2c(c1)C(=O)c1cc3ccccc3cc1C2=O	149 °C
COC(=O)NC(=S)Nc1ccon1	165 to 167 °C
COC1=CC(=O)C=C(Br)C1=O	157 to 158 °C

Compound	melting point
OCCc1ccc(-c2ccc(F)cc2F)c(F)c1	44 to 45 °C
CCCCOc1ccc(S(C)(=O)=O)cc1C(=O)Nc1c(C(N)=O)nn(C2CN(C(C)C)C2)c1CC	198 to 201 °C
COc1ccc2cc(-c3ccnc(N(C)C)n3)cc(NC3CCN(c4ncnc5[nH]nc(Br)c45)CC3)c2c1	167 to 172 °C
Cc1cccc2c1C=Cc1ccccc1C2Cl (configuration not stated)	158 to 160 °C
Cc1sc2nc(C=O)c(C)c(=O)n2c1C	170 to 173 °C
CN1C(=O)[C@H](NC(=O)CCc2ccc(Cl)cc2)N=C(c2ccccc2)c2ccccc21	203 to 205 °C
FC(F)C(F)(F)Oc1cccc(Nc2nccc(-c3cccs3)n2)c1	115 to 116 °C
O=C(Nc1ccccc1N1CCCCC1)c1ccncc1	111 to 113 °C
CCOC(=O)C1=C(C)NC(C)=C(C(=O)OCC)C1c1ccc(-n2ccnc2)cc1	231 to 233 °C
Cc1nnc2c(Cl)nc3ccccc3n12	215 to 222 °C
CCCC(=O)N(Cc1ccc(Cl)cc1Cl)c1c(NC(C)(C)CC)c(=O)c1=O	112 to 117 °C
COc1ccc(C(=O)c2ccc(=O)[nH]c2C=CN(C)C)cc1	216 to 218 °C
CCN(CC)CCCCNc1ncc2c(n1)N(C1CCCC1)C(=O)N(c1c(F)c(OC)cc(OC)c1F)C2	132 to 133 °C
N#CCCC(C=O)(c1ccccc1)c1ccccc1	80 to 82 °C
Clc1cccc(C2=NOCCS2)c1	65 °C
CC(C)c1nc(CO)n(Cc2ccccc2[N+](=O)[O-])c1Sc1cc(Cl)cc(Cl)c1	160 to 166 °C
CC(=O)Nc1cc(Cl)c(C)c(Cl)c1O	175 to 176 °C
CCN(CC)S(=O)(=O)c1cc(Cl)c(Cl)c(Cl)c1S	96 to 99 °C
N#Cc1cc(F)c(-n2c(=O)cc(C(F)(F)F)[nH]c2=O)cc1Oc1cccc2c(O)cccc12	168 °C
CN(C)c1ccc(C(NCCO)C(O)c2ccccc2)cc1 (configuration not stated)	147 to 148 °C
COc1ccccc1N1CC[N+]([O-])(CCN(C(=O)C2CCCCC2)c2ccccc2[N+](=O)[O-])CC1	128 to 132 °C
CSc1onc(-c2ccccc2)c1-c1ccc(S(N)(=O)=O)cc1	135 to 137 °C
Clc1ccc2c(c1)CCC(c1cccnc1)O2 (configuration not stated)	60 to 63 °C
CCOC(=O)C(C#N)=C1CCN(c2ccc(N3C[C@H](CNC(C)=S)OC3=O)cc2F)CC1	182 to 185 °C
